Consider 21 compounds from paper PMC8585718 (European journal of medicinal chemistry, 2021).

Counter-ions that a name gives are not always drawn.

The target of assay [1] is ZVpro (Zika virus NS2B-NS3 protease) (Zika virus, UniProt A0A024B7W1). The assay can be described thus: Fluorescence-based biochemical assay of ZVpro inhibition. As to conditions: for ZVpro IC50: enzyme 1 nM, substrate 10 μM, HEPES pH 7.3.
Assay [2] concerns the target DV2pro (NS2B-NS3 protease from DENV serotype-2) (Dengue virus type 2, UniProt P29990). The assay can be described thus: Fluorescence-based biochemical assay of DV2pro inhibition. As to conditions: IC50 vs substrate concentration 0.5 to 50 μM.
Assay [3] deals with ZIKV-FLR in U87 cells. The assay can be described thus: Anti-ZIKV activity in U87 cells. The class given is cell-based, Zika virus.

In the case of `CC(C)(C)c1ccc(-c2ccc3c(ccn3Cc3ccc(-c4ccoc4)cc3)c2)cc1` [Compound 4, 5-(4-(Tert-butyl)phenyl)-1-(4-(furan-3-yl)benzyl)-1H-indole Hydrochloride], in assay [1], the IC50 (usually the midpoint of a concentration-inhibition curve) is over 50 µM and the “ZVpro IC50” value is “inactive”.
The like results for `CC(C)(C)c1ccc(-c2ccc3c(ccn3Cc3ccc(-c4ccncc4)cc3)c2)cc1` [Compound 5, 5-(4-(Tert-butyl)phenyl)-1-(4-(pyridin-4-yl)benzyl)-1H-indole Hydrochloride] were, in that order, over 50 µM and “inactive”.
In the case of `CC(C)(C)c1ccc(-c2ccc3cc(C(=O)NCC4CCNCC4)[nH]c3c2)cc1` [Compound 8, 6-(4-(Tert-butyl)phenyl)-N-(piperidin-4-ylmethyl)-1H-indole-2-carboxamide Hydrochloride], the midpoint of inhibition in assay [1], the IC50, lay at 1.3 µM.
Consider `CC(C)(C)c1ccc(-c2ccc3c(C(=O)NCC4CCNCC4)c[nH]c3n2)cc1` [Compound 9, 6-(4-(tert-butyl)phenyl)-N-(piperidin-4-ylmethyl)-1H-pyrrolo[2,3-b]pyridine-3-carboxamide Hydrochloride], for which, in assay [1], the IC50 came out at 9.1 µM.
Still for that read-out and setting: as for `CC(C)(C)c1ccc(-c2ccc3[nH]c(C(=O)NCC4CCNCC4)nc3c2)cc1` [Compound 10, 5-(4-(tert-butyl)phenyl)-N-(piperidin-4-ylmethyl)-1H-benzo[d]imidazole-2 carboxamide Hydrochloride], the figure is 3.1 µM.
On the same count and under the same terms, next, `CC(C)(C)c1ccc(-c2ccc3sc(C(=O)NC4CCNCC4)cc3c2)cc1` [Compound 11, 5-(4-(Tert-butyl)phenyl)-N-(piperidin-4-yl)benzo[b]thiophene-2-carboxamide Hydrochloride]: 3.2 µM; `CC(C)(C)c1ccc(-c2ccc3cc(C(=O)NC4CCNCC4)sc3c2)cc1` [Compound 12, 6-(4-(Tert-butyl)phenyl)-N-(piperidin-4-yl)benzo[b]thiophene-2-carboxamide Hydrochloride]: 2.1 µM.
In assay [1], `CC(C)(C)c1ccc(-c2ccc3c(C(=O)NC4CCNCC4)coc3c2)cc1` [Compound 13, 6-(4-(Tert-butyl)phenyl)-N-(piperidin-4-yl)benzofuran-3-carboxamide Hydrochloride] yielded an IC50 of 5.1 µM.
`N#Cc1ccc(-c2ccc3[nH]cc(C(=O)NC4CCNCC4)c3c2)cc1` [Compound 14, 5-(4-cyanophenyl)-N-(piperidin-4-yl)-1H-indole-3-carboxamide Hydrochloride]: the IC50 in assay [1] was over 50 µM.
On the same count and under the same terms, as for `COc1cc(-c2ccc3[nH]cc(C(=O)NC4CCNCC4)c3c2)cc(OC)c1OC` [Compound 15, N-(piperidin-4-yl)-5-(3,4,5-trimethoxyphenyl)-1H-indole-3-carboxamide Hydrochloride], the figure is over 50 µM; as for `O=C(NCC1CCNCC1)c1c[nH]c2ccc(-c3ccc(F)cc3)cc12` [Compound 16, 5-(4-fluorophenyl)-N-(piperidin-4-ylmethyl)-1H-indole-3-carboxamide Hydrochloride], over 50 µM.
Take `O=C(NCC1CCNCC1)c1c[nH]c2ccc(-c3ccc(F)cc3F)cc12` [Compound 17, 5-(2,4-difluorophenyl)-N-(piperidin-4-ylmethyl)-1H-indole-3-carboxamide Hydrochloride]: in assay [1], the IC50 was over 50 µM.
The same measure, in the same setting: next, `O=Cc1cccc(-c2ccc3[nH]cc(C(=O)NCC4CCNCC4)c3c2)c1` [Compound 18, 5-(3-formylphenyl)-N-(piperidin-4-ylmethyl)-1H-indole-3-carboxamide Hydrochloride]: over 50 µM; `COc1cc(-c2ccc3c(C(=O)NCC4CCNCC4)c[nH]c3c2)cc(OC)c1OC` [Compound 19, N-(piperidin-4-ylmethyl)-6-(3,4,5-trimethoxyphenyl)-1H-indole-3-carboxamide Hydrochloride]: over 50 µM; `O=C(NCC1CCNCC1)c1c[nH]c2cc(-c3ccc(F)cc3)ccc12` [Compound 20, 6-(4-fluorophenyl)-N-(piperidin-4-ylmethyl)-1H-indole-3-carboxamide Hydrochloride]: over 50 µM.
Same read-out and setting: as for `O=C(NCC1CCNCC1)c1c[nH]c2cc(-c3ccccc3F)ccc12` [Compound 21, 6-(2-fluorophenyl)-N-(piperidin-4-ylmethyl)-1H-indole-3-carboxamide Hydrochloride], the figure is over 50 µM; as for `NCc1ccc(-c2ccc3c(C(=O)NCC4CCNCC4)c[nH]c3c2)cc1` [Compound 23, 6-(4-(aminomethyl)phenyl)-N-(piperidin-4-ylmethyl)-1H-indole-3-carboxamide Hydrochloride], over 50 µM; as for `O=C(NCC1CCNCC1)c1cc2cc(-c3cccnc3)ccc2[nH]1` [Compound 33, N-(Piperidin-4-ylmethyl)-5-(pyridin-3-yl)-1H-indole-2-carboxamide Hydrochloride], over 50 µM.
The same measure, in the same setting: next, `O=C(NCC1CCNCC1)c1cc2ccc(-c3ccc(OC(F)(F)F)cc3)cc2[nH]1` [Compound 51, N-(Piperidin-4-ylmethyl)-6-(4-(trifluoromethoxy)phenyl)-1H-indole-2-carboxamide Hydrochloride]: 3.2 µM.
On to `O=C(NCC1CCNCC1)c1cc2ccc(-c3ccoc3)cc2[nH]1` [Compound 66, 6-(Furan-3-yl)-N-(piperidin-4-ylmethyl)-1H-indole-2-carboxamide Hydrochloride], for which, in assay [1] (IC50 vs substrate concentration 0.5 to 10 μM), the “mode of inhibition against ZVpro” value is given as “non-competitive”. Moreover, in assay [2], the “mode of inhibition against DV2pro” value was “non-competitive”. For the same compound, the “log reduction of ZIKV replication in U87 cells” value is given as 0.5 log in assay [3] (at 1 μM) and 2 log in assay [3] (at 10 μM).
In assay [1], `N#Cc1ccc(-c2ccc3c(C(=O)NC4CCNCC4)coc3c2)cc1` [Compound 69, 6-(4-Cyanophenyl)-N-(piperidin-4-yl)benzofuran-3-carboxamide Hydrochloride] came in with an IC50 of over 50 µM.
